Test results published in patent US11773062B2, “Deuterated compounds” (priority 2021, dated 2023).

Experiments:
[1] = in vivo; cited from earlier work
[2] = Human liver mitochondrial fraction intrinsic clearance of SPL026 with/without MAO-A and MAO-B inhibitors; type: in vitro ADME
Description: (§1) Human Liver Mitochondrial (HLMt) fractions contain high quantities of MAO enzymes and therefore, provide a useful tool to measure the clearance of MAO substrates.

[3] = Human liver mitochondrial fraction intrinsic clearance of SPL026, SPL028i, SPL028iii, SPL028viii; type: in vitro ADME; details: 0.5 mg/mL human liver mitochondrial fraction (Table 10)
Description: as §1

[4] = target: T1, CYP1A2 (Homo sapiens, UniProt P05177); assay: in vitro
T1 sequence (P05177 1-516): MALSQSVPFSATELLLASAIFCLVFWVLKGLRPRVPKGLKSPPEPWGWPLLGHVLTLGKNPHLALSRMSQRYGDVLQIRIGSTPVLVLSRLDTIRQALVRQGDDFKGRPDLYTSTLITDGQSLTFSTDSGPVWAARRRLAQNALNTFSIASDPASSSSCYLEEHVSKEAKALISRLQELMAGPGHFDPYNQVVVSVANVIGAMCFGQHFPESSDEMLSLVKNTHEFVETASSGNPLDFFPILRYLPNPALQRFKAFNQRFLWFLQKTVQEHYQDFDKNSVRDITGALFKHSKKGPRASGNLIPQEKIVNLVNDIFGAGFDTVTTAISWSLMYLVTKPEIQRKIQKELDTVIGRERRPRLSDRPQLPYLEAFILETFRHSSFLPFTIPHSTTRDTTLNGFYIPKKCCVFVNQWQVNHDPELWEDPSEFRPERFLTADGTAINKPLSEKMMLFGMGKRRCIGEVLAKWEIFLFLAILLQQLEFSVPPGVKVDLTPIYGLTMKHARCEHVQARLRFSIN
Experimental: (§2) Samples were taken at predetermined time points.
(§3) Samples were then centrifuged at −4° C.
(§4) Positive control markers are as specified in Table 11.

[5] = target: T2, CYP2B6 (Homo sapiens, UniProt P20813); assay: in vitro
T2 sequence (P20813 1-491): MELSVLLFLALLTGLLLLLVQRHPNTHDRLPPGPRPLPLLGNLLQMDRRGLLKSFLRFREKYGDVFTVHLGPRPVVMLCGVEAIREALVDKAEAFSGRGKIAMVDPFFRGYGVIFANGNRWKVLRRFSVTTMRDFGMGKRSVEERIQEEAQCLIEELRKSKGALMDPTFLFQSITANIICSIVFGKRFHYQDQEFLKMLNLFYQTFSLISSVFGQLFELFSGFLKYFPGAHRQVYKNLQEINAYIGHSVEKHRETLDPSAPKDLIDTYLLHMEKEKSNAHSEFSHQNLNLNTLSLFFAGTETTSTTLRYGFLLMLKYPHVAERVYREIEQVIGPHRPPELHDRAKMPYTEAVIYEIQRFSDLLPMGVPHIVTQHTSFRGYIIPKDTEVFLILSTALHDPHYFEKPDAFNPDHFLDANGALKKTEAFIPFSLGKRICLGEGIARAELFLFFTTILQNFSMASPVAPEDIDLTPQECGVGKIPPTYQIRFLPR
Experimental: as §2, §3, §4

[6] = target: T3, CYP2C8 (Homo sapiens, UniProt P10632); assay: in vitro
T3 sequence (P10632 1-490): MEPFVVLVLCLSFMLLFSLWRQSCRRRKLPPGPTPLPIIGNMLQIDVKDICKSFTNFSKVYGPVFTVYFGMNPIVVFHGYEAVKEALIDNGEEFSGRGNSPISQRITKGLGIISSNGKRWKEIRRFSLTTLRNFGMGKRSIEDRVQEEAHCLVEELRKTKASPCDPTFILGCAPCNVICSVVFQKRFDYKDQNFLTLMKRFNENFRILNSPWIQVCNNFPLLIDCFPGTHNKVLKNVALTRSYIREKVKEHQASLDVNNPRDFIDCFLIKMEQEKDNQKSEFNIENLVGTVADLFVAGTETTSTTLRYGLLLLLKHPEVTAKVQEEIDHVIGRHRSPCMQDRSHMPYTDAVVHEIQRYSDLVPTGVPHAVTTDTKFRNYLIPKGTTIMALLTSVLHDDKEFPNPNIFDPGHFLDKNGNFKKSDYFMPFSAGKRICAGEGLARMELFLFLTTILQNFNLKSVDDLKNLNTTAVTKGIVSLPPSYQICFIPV
Experimental: as §2, §3, §4

[7] = target: CYP3A5 (Homo sapiens, UniProt P20815); assay: in vitro
Chain of CYP3A5 (P20815 whole entry): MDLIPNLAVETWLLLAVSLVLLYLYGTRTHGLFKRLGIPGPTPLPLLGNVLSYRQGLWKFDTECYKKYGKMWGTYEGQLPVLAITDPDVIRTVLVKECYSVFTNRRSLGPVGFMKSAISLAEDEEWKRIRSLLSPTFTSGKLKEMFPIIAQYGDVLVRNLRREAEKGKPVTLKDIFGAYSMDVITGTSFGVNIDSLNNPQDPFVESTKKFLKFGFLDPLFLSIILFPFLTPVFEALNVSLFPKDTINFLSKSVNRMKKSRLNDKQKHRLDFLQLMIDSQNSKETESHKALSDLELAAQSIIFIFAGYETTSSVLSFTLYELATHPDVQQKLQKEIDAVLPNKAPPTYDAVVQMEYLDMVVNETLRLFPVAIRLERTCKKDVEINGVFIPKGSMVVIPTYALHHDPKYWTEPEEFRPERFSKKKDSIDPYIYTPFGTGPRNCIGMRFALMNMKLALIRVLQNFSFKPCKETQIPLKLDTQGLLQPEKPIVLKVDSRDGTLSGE
Experimental: as §2, §3, §4

[8] = target: CYP2C19 (Homo sapiens, UniProt P33261); assay: CYP phenotyping, CYP bactosomes
Chain of CYP2C19 (P33261 whole entry): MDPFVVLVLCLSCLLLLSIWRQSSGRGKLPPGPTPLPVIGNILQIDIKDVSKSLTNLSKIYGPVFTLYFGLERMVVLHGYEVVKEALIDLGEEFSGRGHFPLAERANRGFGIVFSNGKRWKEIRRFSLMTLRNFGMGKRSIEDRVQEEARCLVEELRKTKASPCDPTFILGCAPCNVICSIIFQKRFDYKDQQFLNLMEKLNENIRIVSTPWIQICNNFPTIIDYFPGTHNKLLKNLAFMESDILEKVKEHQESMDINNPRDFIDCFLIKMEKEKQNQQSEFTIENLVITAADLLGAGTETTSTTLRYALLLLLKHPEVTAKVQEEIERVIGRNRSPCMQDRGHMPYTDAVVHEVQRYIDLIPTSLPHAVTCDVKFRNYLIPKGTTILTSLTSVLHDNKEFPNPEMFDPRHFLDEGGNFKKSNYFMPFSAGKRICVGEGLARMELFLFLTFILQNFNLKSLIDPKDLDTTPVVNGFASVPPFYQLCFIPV
Experimental: as §2, §3, §4

[9] = target: CYP2C9 (Homo sapiens, UniProt P11712); assay: CYP phenotyping, CYP bactosomes
Chain of CYP2C9 (P11712 whole entry): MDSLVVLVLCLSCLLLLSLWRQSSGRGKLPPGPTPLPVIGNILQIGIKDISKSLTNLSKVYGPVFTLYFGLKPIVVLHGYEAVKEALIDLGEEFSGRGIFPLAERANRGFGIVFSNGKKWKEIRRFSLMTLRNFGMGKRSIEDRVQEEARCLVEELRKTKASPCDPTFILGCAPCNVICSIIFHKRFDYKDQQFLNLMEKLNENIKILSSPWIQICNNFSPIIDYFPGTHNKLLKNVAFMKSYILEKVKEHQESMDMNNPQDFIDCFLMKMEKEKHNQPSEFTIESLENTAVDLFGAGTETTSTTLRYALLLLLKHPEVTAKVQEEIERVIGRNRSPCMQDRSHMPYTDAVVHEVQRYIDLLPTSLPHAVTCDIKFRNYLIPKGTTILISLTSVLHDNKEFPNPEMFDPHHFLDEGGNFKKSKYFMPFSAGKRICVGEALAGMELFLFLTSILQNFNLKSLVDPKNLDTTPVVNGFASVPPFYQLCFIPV
Experimental: as §2, §3, §4

[10] = target: CYP3A4 (Homo sapiens, UniProt P08684); assay: CYP phenotyping, CYP bactosomes
Chain of CYP3A4 (P08684 whole entry): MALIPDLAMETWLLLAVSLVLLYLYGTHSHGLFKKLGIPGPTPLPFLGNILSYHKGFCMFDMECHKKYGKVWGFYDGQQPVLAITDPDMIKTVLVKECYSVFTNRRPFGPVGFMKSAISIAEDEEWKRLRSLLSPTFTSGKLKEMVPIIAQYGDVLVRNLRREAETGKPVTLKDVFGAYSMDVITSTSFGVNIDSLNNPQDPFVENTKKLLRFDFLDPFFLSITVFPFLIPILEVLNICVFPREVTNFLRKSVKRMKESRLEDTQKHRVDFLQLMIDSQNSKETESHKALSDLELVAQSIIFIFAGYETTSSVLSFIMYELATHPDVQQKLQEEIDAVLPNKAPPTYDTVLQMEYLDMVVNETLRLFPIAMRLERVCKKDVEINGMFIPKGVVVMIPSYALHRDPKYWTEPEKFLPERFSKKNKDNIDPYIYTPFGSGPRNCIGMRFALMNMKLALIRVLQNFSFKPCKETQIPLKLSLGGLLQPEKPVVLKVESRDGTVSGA
Experimental: as §2, §3, §4

[11] = target: T4, CYP2D6 (Homo sapiens, UniProt P10635)
T4 sequence (P10635 whole entry): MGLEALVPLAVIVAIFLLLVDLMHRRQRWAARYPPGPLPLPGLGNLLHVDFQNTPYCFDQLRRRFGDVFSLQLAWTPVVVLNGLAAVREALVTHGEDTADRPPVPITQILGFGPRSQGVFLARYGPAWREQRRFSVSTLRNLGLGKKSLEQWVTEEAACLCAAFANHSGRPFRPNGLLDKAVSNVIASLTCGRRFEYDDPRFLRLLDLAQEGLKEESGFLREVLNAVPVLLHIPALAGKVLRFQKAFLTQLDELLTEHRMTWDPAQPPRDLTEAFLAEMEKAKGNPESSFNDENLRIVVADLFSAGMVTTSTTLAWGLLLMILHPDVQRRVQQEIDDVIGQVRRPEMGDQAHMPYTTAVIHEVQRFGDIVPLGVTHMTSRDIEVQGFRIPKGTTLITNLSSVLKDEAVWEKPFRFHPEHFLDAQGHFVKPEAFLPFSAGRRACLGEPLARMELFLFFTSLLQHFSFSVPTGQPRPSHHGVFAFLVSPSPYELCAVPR
Experimental: (§5) The CYPs used in this study are heterologously expressed in E. coli and purchased as individualised forms (CYP bactosomes) from CYPEX. Bactosomes contain recombinant CYP isoenzymes combined with CYP reductase leading to a higher specific activity than liver microsomes.
(§6) Phosphate buffer is prepared at 0.1 M, pH 7.4 by combining 0.1 M Na2HPO4 and 0.1 M KH2PO4 solutions.
(§7) Nicotinamide adenine dinucleotide 2′-phosphate reduced tetrasodium salt hydrate (NADPH) is prepared at 10 m<in 0.1 M phosphate buffer (pH 7.4).
(§8) The individual CYP bactosomes are thawed at room temperature undiluted to 200 pmol/mL and 0.1 M phosphate buffer.
(§9) Standard final incubation conditions are 1-3 μM compound in a buffer containing 100 pmol/mL CYP bactosome, 1% (v/v) DMSO.
(§10) The elimination rate constant (k) is calculated using the slope of a ln (MS peak area or response—if internal standard is used) vs. time plot of the test compounds and markers.
(§11) Intrinsic clearance in μL/min/nmol CYP is calculated using the following equation: Clint=−1000 k/CYP concentration
(§12) Projected CYP isoform intrinsic clearance accounting for estimated CYP abundance in human liver microsomes (μL/min/mg microsomal protein)* is calculated using the following equation: Projected set isoform intrinsic clearance=Estimated CYP abundance*Clint * Estimated CYP abundance is taken as an average from three literature references 1, 2 3 and the abundances used are as follows (nmol CYP/mg Human Liver Microsomal Protein):

[12] = target: T4, CYP2D6; assay: in vitro; details: recombinant enzyme, pH 7.4
Experimental: as §5, §6, §7, §8, §9, §10, §11, §12

[13] = target: T4, CYP2D6; assay: CYP phenotyping, CYP bactosomes
Experimental: as §5, §6, §7, §8, §9, §10, §11, §12

[14] = In vitro mouse hepatocytic intrinsic clearance; details: male, CD-1, mouse, hepatocytes
[15] = test system: human (mixed gender) hepatocytes; assay: In vitro intrinsic clearance in human hepatocytes with and without MAO-A/B inhibitor combination (first experiment)
Experimental: Standard final incubation conditions are 1 μM compound in buffer containing nominally ˜0.5 million viable cells/mL, ˜0.9% (v/v) acetonitrile (MeCN) and ˜0.1% (v/v) DMSO (specific assay concentrations outlined above, section 2).
Samples are then centrifuged at 4° C.

[16] = human liver mitochondrial fraction, Deprenyl (MAO-B inhibitor) 100 nM
[17] = E. coli CYPEX membranes, 100 pmol/mL CYP
[18] = human, recombinant enzyme, pH 7.4
[19] = human hepatocytes, with MAO-A/B inhibitor combination (Table 5)
[20] = human hepatocytes, without MAO-A/B inhibitor combination (Table 5)

[2H]C([2H])(c1c[nH]c2ccccc12)C([2H])([2H])N(C)C [D4DMT, α,α,β,β-tetradeutero-N,N-dimethyltryptamine]
behavioural effect compared to equal doses of DMT [1]: shorter time to onset and potentiation of behaviour disrupting effects

CN(C)CCc1c[nH]c2ccccc12 [SPL026, N,N-dimethyltryptamine, reference compound]
half-life ([2]; 0.5 mg/mL human liver mitochondrial fraction, DMSO Vehicle (no inhibitor)): 0.562 h
half-life ([2]; human liver mitochondrial fraction, Clorgyline (MAO-A inhibitor) 100 nM): >6.228 h
Intrinsic Clearance [2, 16]: 42.7 μL/min/mg protein
half-life [2, 16]: 0.542 h
half-life [3]: 8.6 min
intrinsic clearance, CYP isoform 1A2 [4, 17]: <29 μL/min/nmol CYP
half-life [4, 18]: > 4 h
intrinsic clearance, CYP isoform 2B6 [5, 17]: <29 μL/min/nmol CYP
half-life [5, 18]: > 4 h
intrinsic clearance, CYP isoform 2C8 [6, 17]: <29 μL/min/nmol CYP
half-life [6, 18]: > 4 h
intrinsic clearance, CYP isoform 3A5 [7, 17]: <29 μL/min/nmol CYP
half-life [7, 18]: > 4 h
substrate for CYP2C19 ([8]; CYP phenotyping): substrates
intrinsic clearance, CYP isoform 2C19 [8, 17]: 37 μL/min/nmol CYP
half-life [8, 18]: 3.15 h
projected scaled intrinsic clearance, CYP isoform 2C19 ([8]; scaled by estimated CYP abundance in human liver microsomes (0.009 nmol CYP/mg)): 0.3 μl/min/mg microsomal protein
intrinsic clearance, CYP isoform 2C9 [9, 17]: <29 μL/min/nmol CYP
half-life [9, 18]: > 4 h
intrinsic clearance, CYP isoform 3A4 [10, 17]: <29 μL/min/nmol CYP
half-life [10, 18]: > 4 h
projected scaled intrinsic clearance, CYP isoform 2D6 [11]: 9.5 μl/min/mg microsomal protein
half-life [12]: 9 min
substrate for CYP2D6 ([13]; CYP phenotyping): substrates
intrinsic clearance, CYP isoform 2D6 [13, 17]: 801 μL/min/nmol CYP
half-life at 5 μM [14]: 0.255 h
hepatocyte CLint at 5 μM [14]: 124 µL/min/1e6 cells
% change in half-life, MAO inhibitors vs no inhibitors ([15]; human hepatocytes (Table 5)): 3.82%
% change in intrinsic clearance, MAO inhibitors vs no inhibitors ([15]; human hepatocytes (Table 5)): −4.00%
Intrinsic clearance, with inhibitors ([15]; human hepatocytes, with 100 nM clorgyline + 100 nM deprenyl/selegiline (Table 3)): 13.24 μL/min/million cells
Half-life, with inhibitors [15, 19]: 1.601 h
Intrinsic clearance, with inhibitors [15, 19]: 13.24 μL/min/million cells
Half-life, with inhibitors ([15]; human hepatocytes, with MAO-A/B inhibitors (Table 4; unit given only in Table 5)): 1.601 h
slower intrinsic clearance with inclusion of MAO inhibitors ([15]; human hepatocytes, with vs without MAO inhibitors): ~4%
Half-life, without inhibitors ([15]; human hepatocytes, without MAO inhibitors (Table 4; unit given only in Table 5)): 1.54 h
Half-life, without inhibitors [15, 20]: 1.54 h
Intrinsic clearance, without inhibitors [15, 20]: 13.77 μL/min/million cells
